Reference: PMC9841589, “Identification of 2-Aminoacyl-1,3,4-thiadiazoles as Prostaglandin E2 and Leukotriene Biosynthesis Inhibitors” (ACS Medicinal Chemistry Letters, 2022)

target: T1, Human recombinant sEH (Homo sapiens, UniProt P34913); experiment: Activity assay of human recombinant sEH; type: biochemical; conditions: percentage of uninhibited control (100%), n = 3, n.i.: no inhibitory activity observed, read-out: sEH residual activity (%)
T1 construct: made in house; host or cells: Sf9 cells infected with a baculovirus provided by Dr. B. Hammock
T1 sequence (P34913 1-555): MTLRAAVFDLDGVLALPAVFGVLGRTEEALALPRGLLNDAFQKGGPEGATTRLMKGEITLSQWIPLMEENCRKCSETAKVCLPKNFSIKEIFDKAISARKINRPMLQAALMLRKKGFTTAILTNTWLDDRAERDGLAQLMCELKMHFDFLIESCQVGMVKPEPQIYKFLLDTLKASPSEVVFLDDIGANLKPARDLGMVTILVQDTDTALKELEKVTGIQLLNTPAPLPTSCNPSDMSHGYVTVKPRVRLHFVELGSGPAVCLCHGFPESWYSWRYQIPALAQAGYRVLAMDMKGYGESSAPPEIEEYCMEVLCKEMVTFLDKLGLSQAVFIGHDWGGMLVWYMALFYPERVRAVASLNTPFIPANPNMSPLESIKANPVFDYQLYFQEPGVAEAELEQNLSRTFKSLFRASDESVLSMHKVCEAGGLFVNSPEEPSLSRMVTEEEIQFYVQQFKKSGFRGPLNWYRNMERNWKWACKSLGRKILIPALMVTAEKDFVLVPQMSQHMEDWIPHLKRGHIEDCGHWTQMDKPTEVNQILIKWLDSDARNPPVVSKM
Protocol: 8) plus 5 mM glutathione, 100 µM EDTA and 5 µM hemoglobin) to a final concentration of 50 U/mL for COX-1 and 20 U/mL for COX-2, and pre-incubated with test compounds 3, 6, 7, and 9 (10 µM) or vehicle (0.1% DMSO) over 5 min at rt. After 1 min at 37 °C, reactions were started after addition of arachidonic acid to a final concentration of 5 µM for COX-1 and 2 µM for COX-2. After 5 min at 37 °C, 1 mL of ice-cold methanol was added for stopping the reactions on ice. Then, PGB 1 as internal standard and 530 µl PBS plus HCl were added, and solid-phase extraction was performed as reported before.4-6, 17-19 COXs product formation (12-HHT) was determined using RP-HPLC. 4-6, 17-19 Indomethacin (10 µM) and celecoxib (5 µM) were used as reference drugs.
Expression, purification and activity assay of human recombinant sEH
Human recombinant sEH was expressed in Sf9 cells and was infected using a baculovirus, provided by Dr. B. Hammock, University of California, Davis, CA. After 72 hours, cells were pelleted and sonicated (3 × 10 sec) at 4 °C in lysis buffer (50 mM NaHPO 4, pH = 8, 300 mM NaCl, 10% glycerol, 1 mM EDTA, 1 mM phenylmethanesulfonyl fluoride, 10 µg/mL of leupeptin, and 60 µg/mL of soybean trypsin inhibitor). Lysates were centrifuged over 60 min at 4 °C (100,000 × g), and supernatants were collected and submitted to a benzylthio-sepharose-affinity chromatography for sEH purification by elution with 4-fluorochalcone oxide in PBS plus 1 mM DTT and 1 mM EDTA.720 Bio-Rad protein detection kit (Bio-Rad Laboratories, Munich, Germany) was used for total protein on dialyzed and concentrated (Millipore Amicon-Ultra-15 centrifugal filter) enzyme solution and a fluorescence-based assay was used to define the epoxide hydrolase activity. 5,618, 19 Then, sEH was diluted in Tris buffer (25 mM, pH = 7) supplemented with 0.1 mg/mL of BSA to an appropriate enzyme concentration and pre-incubated with test compounds 3, 6, 7, 9 (10 µM) or vehicle (0.1% DMSO) for 15 min at rt. 50 µM 3-phenyl-cyano(6-methoxy-2-naphthalenyl)methyl ester-2-oxiraneacetic acid (PHOME), a non-fluorescent compound, was added for starting the reaction.
PHOME is enzymatically converted into a fluorescent compound, 6-methoxy-naphtaldehyde, detectable by using a spectrofluorometer setting λ em = 465 nm, λ ex = 330 nm. After 60 min, ZnSO 4 […]
(200 mM) was added for stopping the reaction, and then fluorescence was detected. AUDA (12-(3-adamantan-1-yl-ureido)-dodecanoic acid) (100 nM) was used as reference drug.
Human neutrophils and monocytes were freshly isolated from leukocyte concentrates obtained from the Institute of Transfusion Medicine, University Hospital Jena. […]

remaining activity at 10 µM [%]	Compound
67.7	Cc1cc(C(=O)Nc2nnc(-c3ccc(-c4ccccc4N)cc3)s2)cc(Cl)n1 [compound 6]
83.9	Nc1ccccc1-c1ccc(-c2nnc(NC(=O)c3c(Cl)ccnc3Cl)s2)cc1 [compound 9]
164	Nc1ccccc1-c1ccc(-c2nnc(NC(=O)c3ccccc3Br)s2)cc1 [compound 7]
96	O=C(Nc1nnc(-c2ccc(-c3cccc(O)c3)cc2)s1)c1ccccc1Br [compound 3]
